Measured values as given in patent US6068838A, “Purified multimerase” (Baxter Aktiengesellschaft, priority 1996, dated 2000).
Read-outs that look alike come from different tables or passages of the source. Residues, ends and D or L forms follow the SMILES beside them. *: point of attachment. Cbz = O=C(OCc1ccccc1)*; CHN2 = [N-]=[N+]=C*

Key:
[1] = target: T1, vWF-cleaving protease (Homo sapiens, UniProt Q76LX8); assay: Influence of metal ions on the activity of the vWF-cleaving protease; assay type: biochemical; conditions: 95 μl protease preincubated 15 minutes at 37° C. with 5 μl of 0.2 M salt solution
T1 construct: Purification of Protease from Plasma; from tissue; host or cells: plasma (fibrinogen removed before chromatography)
T1 sequence (Q76LX8 75-1427): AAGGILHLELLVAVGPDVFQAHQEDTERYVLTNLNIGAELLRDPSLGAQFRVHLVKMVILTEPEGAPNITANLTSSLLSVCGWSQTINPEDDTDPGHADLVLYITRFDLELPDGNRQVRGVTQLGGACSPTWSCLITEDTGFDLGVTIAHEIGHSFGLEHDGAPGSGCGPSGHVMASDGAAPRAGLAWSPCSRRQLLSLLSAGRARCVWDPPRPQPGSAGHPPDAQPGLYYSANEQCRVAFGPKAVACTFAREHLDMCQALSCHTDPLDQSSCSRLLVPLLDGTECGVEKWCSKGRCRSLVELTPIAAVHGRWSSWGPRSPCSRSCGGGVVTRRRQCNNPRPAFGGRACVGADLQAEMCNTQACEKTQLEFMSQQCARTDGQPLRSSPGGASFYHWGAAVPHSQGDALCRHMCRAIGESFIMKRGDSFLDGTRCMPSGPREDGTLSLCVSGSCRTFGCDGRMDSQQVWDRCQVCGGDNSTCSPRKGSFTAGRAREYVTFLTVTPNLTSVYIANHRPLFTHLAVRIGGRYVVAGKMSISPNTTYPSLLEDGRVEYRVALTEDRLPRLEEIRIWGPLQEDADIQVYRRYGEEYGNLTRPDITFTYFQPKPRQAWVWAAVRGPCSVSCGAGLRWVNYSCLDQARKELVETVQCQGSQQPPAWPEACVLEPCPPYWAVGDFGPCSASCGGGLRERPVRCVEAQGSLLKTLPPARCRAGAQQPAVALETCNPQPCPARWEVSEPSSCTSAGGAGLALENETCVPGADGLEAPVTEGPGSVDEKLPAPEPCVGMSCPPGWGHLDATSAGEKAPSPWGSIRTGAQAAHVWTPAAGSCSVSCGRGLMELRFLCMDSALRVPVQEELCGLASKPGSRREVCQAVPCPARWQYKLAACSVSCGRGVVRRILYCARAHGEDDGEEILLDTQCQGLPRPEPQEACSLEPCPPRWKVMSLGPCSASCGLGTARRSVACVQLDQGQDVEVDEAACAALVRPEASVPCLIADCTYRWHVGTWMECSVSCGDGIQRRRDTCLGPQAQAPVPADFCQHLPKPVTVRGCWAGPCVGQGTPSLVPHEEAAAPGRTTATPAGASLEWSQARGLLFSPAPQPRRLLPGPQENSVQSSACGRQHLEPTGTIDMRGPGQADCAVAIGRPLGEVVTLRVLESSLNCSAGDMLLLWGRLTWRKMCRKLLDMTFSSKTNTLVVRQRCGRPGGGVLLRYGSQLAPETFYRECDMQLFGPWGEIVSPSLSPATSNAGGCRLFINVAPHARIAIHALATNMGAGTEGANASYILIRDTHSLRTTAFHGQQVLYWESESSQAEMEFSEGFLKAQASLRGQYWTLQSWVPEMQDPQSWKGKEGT

[2] = target: T1, vWF-cleaving protease; assay: Effect of protease inhibitors on vWF degradation; assay type: biochemical; conditions: for effect of peptidyl-diazomethylketone inhibitors on proteolytic degradation of vWF: final concentration 0.1 mM during preincubation with barium-activated protease
[3] = target: T2, plasmin (Homo sapiens, UniProt P00747); assay: Degradation of vWF with plasmin with and without inhibitors; assay type: biochemical; conditions: for effect of inhibitor on plasmin-induced reduction of high multimers of cryoprecipitate: incubation for more than 8 hours; for effect of inhibitor on plasmin degradation of r-vWF: plasmin reduced to 1:10, about 20 hours
T2 construct: plasmin being diluted to 0.2 U/ml in 20 mM TBS buffer, pH 8.3
T2 sequence (P00747 581-810): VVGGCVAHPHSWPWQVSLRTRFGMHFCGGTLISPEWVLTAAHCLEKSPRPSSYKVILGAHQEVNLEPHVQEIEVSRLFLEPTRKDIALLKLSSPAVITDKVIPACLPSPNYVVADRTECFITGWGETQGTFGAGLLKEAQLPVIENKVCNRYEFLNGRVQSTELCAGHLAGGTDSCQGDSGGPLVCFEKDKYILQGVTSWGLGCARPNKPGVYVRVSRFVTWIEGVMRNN
T2 sequence (P00747 97-580): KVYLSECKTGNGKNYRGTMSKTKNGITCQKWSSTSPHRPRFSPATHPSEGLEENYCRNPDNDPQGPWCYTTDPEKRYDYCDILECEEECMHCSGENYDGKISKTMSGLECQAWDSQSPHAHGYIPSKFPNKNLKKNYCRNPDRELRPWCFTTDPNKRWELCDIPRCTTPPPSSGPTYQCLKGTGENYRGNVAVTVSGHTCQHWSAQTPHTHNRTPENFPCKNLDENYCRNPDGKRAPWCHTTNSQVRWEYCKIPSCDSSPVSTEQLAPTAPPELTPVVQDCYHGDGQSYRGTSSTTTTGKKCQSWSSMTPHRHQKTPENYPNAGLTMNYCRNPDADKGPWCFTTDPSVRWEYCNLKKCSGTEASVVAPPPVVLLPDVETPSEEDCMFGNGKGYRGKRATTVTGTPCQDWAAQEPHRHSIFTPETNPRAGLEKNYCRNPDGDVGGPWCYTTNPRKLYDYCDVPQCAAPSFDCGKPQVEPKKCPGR
Experimental: (§1) Analysis of the r-vWF and its proteolytic degradation products was performed on 1% and 2% agarose gels, also according to the method of Ruggeri et al. (Blood 57 (1981), 1140-1143). The vWF multimers were made visible by immunoenzymatic staining according to Aihara et al. (Thromb. Haemostas. 55 (1986), 263-267). A rabbit-anti-von Willebrand factor-antiserum (from Dakopatts, Glostrup, Denmark) was used as the primary antibody, and an alkaline phosphatase-conjugated, affinity-purified goat-anti-rabbit IgG H+L-antibody (from Axell Accurate Chemical and Scientific Corp, Westburg, N.Y.) served as the secondary antibody. Staining of the protein bands was effected by means of the nitroblue tetrazolium/bromochloro-indolyl-phosphate substrate system.

[4] = target: T3, vWF protease (Homo sapiens, UniProt Q76LX8); assay: Degradation of vWF by the vWF protease in the presence of aprotinin or PPACK; assay type: biochemical; conditions: for degradation of recombinant vWF by the protease in the presence of inhibitor: inhibitor concentration at which no protease activity detected with a chromogenic substrate of plasmin
T3 construct: the preparation prepared according to the invention with the vWF-specific protease; from tissue
T3 sequence (Q76LX8 75-1427): T1 sequence (Q76LX8 75-1427)
Experimental: The concentration of aprotinin and PPACK was chosen such that no protease activity could be detected with a chromogenic substrate of plasmin.
In this experiment, the degradation products of the recombinant vWF with the protease according to the invention were the satellite bands developed and the central bands. Actually all bands were very similar to plasmatic vWF (FIG. 14 (panel C)).
as §1

[5] = Incubation of r-vWF in vWF-deficient human plasma; assay type: in vitro ADME
Experimental: Further tests investigated whether a proteolytic degradation of r-vWF took place during incubation with human plasma (cf. FIG. 18). For this, the r-vWF preparation was mixed with equal volumes of a vWF-deficient plasma (cf. FIG. 18 (panel A)) and incubated for 48 hours, samples being taken at various times. No change of the r-vWF over time could be detected.
as §1

## CC(=O)[O-].CC(=O)[O-].[Cd+2] [Cd^2+, Cd(CH3 COO)2]
[1]
  activation of the protease by metal ions: no activation

## NC(=O)CI [IAA, iodoncetamide]
[2]
  inhibition of the barium-preincubated protease (vWF degradation by SDS agarose electrophoresis and immunoblotting): did not result in protease inhibition

## CC(C)[C@H](NC(=O)OCc1ccccc1)C(=O)N[C@H](C(=O)N[C@@H](Cc1ccc(O)cc1)C(=O)C=[N+]=[N-])C(C)C [Z-Val-Val-Tyr-CHN2] (Cbz-Val-Val-Tyr-CHN2)
[2]
  effect of peptidyl-diazomethylketone inhibitors on proteolytic degradation of vWF: impaired the proteolytic degradation of vWF

## aprotinin
[2]
  inhibition of the barium-preincubated protease (vWF degradation): no inhibition
[3]
  effect of inhibitor on plasmin-induced reduction of high multimers of cryoprecipitate: prevented
  effect of inhibitor on plasmin degradation of r-vWF: prevented
[4]
  degradation of cryoprecipitate vWF by vWF protease on addition of inhibitor: could not be prevented
  degradation of recombinant vWF by the protease in the presence of inhibitor: degraded identically

## [Cl][Ni][Cl] [Ni^2+, NiCl2]
[1]
  activation of the protease by metal ions: no activation

## O=S(=O)(F)Cc1ccccc1 [PMSF, phenylmethylsulfonyl fluoride]
[2]
  inhibition of the barium-preincubated protease (vWF degradation): no inhibition

## [Cl-].[Cl-].[Mg+2] [Mg^2+, MgCl2]
[1]
  activation of the protease by metal ions: slight activation

## Cc1ccc(S(=O)(=O)N[C@@H](CCCCN)C(=O)CCl)cc1 [TLCK, N-α-p-tosyl-L-lysine-chloromethylketone]
[2]
  inhibition of the barium-preincubated protease (vWF degradation): no inhibition

## r-vWF: Recombinant vWF factor produced according to FEBS-Letters 375, 259-262 (1995), singlet structure
[5]; equal length of time at 37° C. in buffer media
  change of r-vWF structure in control preparation: no change of structure
[5]; mixed with equal volume of vWF-deficient plasma, incubated for 48 hours
  change of r-vWF over time: No change

## O=C(O)CN(CCOCCOCCN(CC(=O)O)CC(=O)O)CC(=O)O [ESTA, EGTA]
[2]; inhibitor final concentration 10 mM, 15 minutes preincubation at 37° C.
  inhibition of the barium-preincubated protease (vWF degradation by SDS agarose electrophoresis and immunoblotting): inhibit the barium-preincubated protease completely

## [Cl][Mn][Cl] [Mn^2+, MnCl2]
[1]
  activation of the protease by metal ions: no activation

## N=C(N)NCCC[C@H](NC(=O)[C@@H]1CCCN1C(=O)[C@H](N)Cc1ccccc1)C(=O)CCl [PPACK, Diphenylalanylprolyl arginine-chloromethylketone]
[3]
  effect of inhibitor on plasmin-induced reduction of high multimers of cryoprecipitate: prevented
  effect of inhibitor on plasmin degradation of r-vWF: prevented
[4]
  degradation of cryoprecipitate vWF by vWF protease on addition of inhibitor: could not be prevented
  degradation of recombinant vWF by the protease in the presence of inhibitor: degraded identically

## O=C(O)CC(O)(CC(=O)O)C(=O)O [citrate, Na3 -citrate]
[2]
  inhibition of the barium-preincubated protease (vWF degradation by SDS agarose electrophoresis and immunoblotting): partial inhibition

## O=S(=O)([O-])[O-].[Cu+2] [Cu^2+, CuSO4]
[1]
  activation of the protease by metal ions: no activation

## [Cl-].[Cl-].[Sr+2] [Sr^2+, SrCl2]
[1]
  activation of the protease by metal ions: substantial activation

## Cc1ccc(S(=O)(=O)N[C@@H](Cc2ccccc2)C(=O)CCl)cc1 [TPCK, N-α-p-tosyl-L-phenylalanine-chloromethylketone]
[2]; inhibitor 1 mM, 15 minutes preincubation at 37° C.
  inhibition of the barium-preincubated protease (vWF degradation): no inhibition

## [N-]=[N+]=CC(=O)[C@H](Cc1ccccc1)NC(=O)[C@H](Cc1ccccc1)NC(=O)OCc1ccccc1 [Z-Phe-Phe-CH2, Z-Phe-Phe-CHN2] (Cbz-Phe-Phe-CHN2)
[2]
  effect of peptidyl-diazomethylketone inhibitors on proteolytic degradation of vWF: impaired the proteolytic degradation of vWF

## CC(C)C[C@H](NC(=O)OCc1ccccc1)C(=O)N[C@@H](CC(C)C)C(=O)N[C@@H](Cc1ccc(O)cc1)C(=O)C=[N+]=[N-] [Z-Leu-Leu-Tyr-CHN2] (Cbz-Leu-Leu-Tyr-CHN2)
[2]
  effect of peptidyl-diazomethylketone inhibitors on proteolytic degradation of vWF: active in the presence

## [Cl-].[Cl-].[Zn+2] [Zn^2+, ZnCl2]
[1]
  activation of the protease by metal ions: no activation

## O=S(=O)([O-])[O-].[Co+2] [Co^2+, CoSO4]
[1]
  activation of the protease by metal ions: no activation

## CCN1C(=O)C=CC1=O [NEM, N-ethylmaleimide]
[2]
  inhibition of the barium-preincubated protease (vWF degradation by SDS agarose electrophoresis and immunoblotting): did not result in protease inhibition
  protease inhibition with inhibitor also incorporated into the dialysis solution: partial protease inhibition

## [Ca+2].[Cl-].[Cl-] [Ca^2+, CaCl2]
[1]
  activation of the protease by metal ions: substantial activation

## CC(=O)N[C@@H](CC(C)C)C(=O)N[C@@H](CC(C)C)C(=O)N[C@H](C=O)CCCNC(=N)N [leupeptin]
[2]
  inhibition of the barium-preincubated protease (vWF degradation): no inhibition

## O=C(O)CN(CCN(CC(=O)O)CC(=O)O)CC(=O)O [EDTA]
[2]
  inhibition of the barium-preincubated protease (vWF degradation by SDS agarose electrophoresis and immunoblotting): inhibit the barium-preincubated protease completely

## [Ba+2].[Cl-].[Cl-] [Ba^2+, BaCl2]
[1]
  activation of the protease by metal ions: substantial activation
